Data: paper PMC9576799, “Discovery of small molecule inhibitors that effectively disrupt IQGAP1-Cdc42 interaction in breast cancer cells” (Scientific Reports, 2022)

Key:
His-tagged GST = biological target: T1, His-tagged GST (Schistosoma japonicum, UniProt P08515); experiment: HTRF counter-screen with His-GST; settings: 100 nM His-GST
T1 construct: purchased Millipore #12-523
Protocol: Two different HTRF counter-screens were used to identify false positive hits. The two interacting proteins GST-IQGAP1-C and His-Cdc42-Q61L were replaced with His-tagged GST or Cdc42-Q61L containing GST at the N-terminus and His at the C-terminus (GST-Cdc42-Q61L-His).
The second counter-screen was performed with 100 nM His-tagged GST following the protocol described above.
Supplementary Table S2: Counter-screening HTRF protocol.
Step Parameter Value Description
1a Protein 4 µL 100 nM His-GST (final concentration), diluted in
1b Controls 4 µL Column 2: GST-IQGAP1-C protein only [1.5nM] final
Column 3: pre-mixed proteins (regular assay
2 Compounds 23 nL Selected compounds were pin-transferred from DMSO
HTRF α-His-XL (5 ng/µL, 3X working concentration) +
3 antibodies 2 µL α-GST-K (0.7 ng/µL 3X working concentration),
pre-mix mixed in binding buffer
4 Time 3 Incubation (ambient temperature)
5 Reagent 1 µL 2.8 M KF (7x)
6 Detector HTRF Envision plate reader (excitation: 340 nm, emission: […]

MCF7-siIQ8 cells = experiment: CellTiter-Glo cell viability assay, IQGAP1 knockdown MCF7; assay type: cell-based; settings: Homo sapiens
Protocol: Selected hit compounds were tested in CellTiterGlo cell viability assays to determine their cytotoxic effect on IQGAP1 knockout and control MCF7 cells. Prior to the assay, we assessed cell proliferation to keep both cell lines at similar exponential growth rates within 80 h after plating. For this purpose, the cells were plated onto 384-well clear bottom black plates (Perkin Elmer, Ultra) at various cell densities (between 625 and 10,000 cells/50µL/well), spun down for 15 s, and placed into Incucyte SX5 (Essen BioScience) for automated bright-field channel reading every 4 h. […] For the cytotoxicity assays, cells were harvested with 0.05% trypsin, spun down at 125xg for 5 min, re-suspended in fresh DMEM supplemented with 5% (v/v) FBS, and seeded into 1536-well white solid bottom tissue culture-treated plates (Greiner One, #789173-F) at 600 cells/5µL/well for knockout cells and 300 cells/5µL/well for control cells using a Multidrop Combi dispenser (Thermo Fisher Scientific Inc.). […]
Plates and reagents were equilibrated to room temperature and then 5 µL/well of CellTiter Glo (Promega, #G7570) reagent was dispensed with a Multidrop Combi dispenser to the assay plates. After incubation for 10 min at ambient temperature, the luminescence signal was read with a ViewLux instrument (Perkin Elmer) with one second exposure. […]

T1 sequence (P08515 whole entry): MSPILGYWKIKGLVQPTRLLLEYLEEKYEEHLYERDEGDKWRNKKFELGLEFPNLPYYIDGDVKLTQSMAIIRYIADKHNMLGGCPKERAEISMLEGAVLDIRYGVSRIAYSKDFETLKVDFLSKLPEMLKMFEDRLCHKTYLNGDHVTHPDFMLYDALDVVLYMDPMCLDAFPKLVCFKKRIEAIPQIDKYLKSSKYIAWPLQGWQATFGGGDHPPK

For `CCN(CC)CCn1c2ccccc2c2nc3ccc([N+](=O)[O-])cc3cc21` [MLS000332963], the “activity in His-GST counter-screen” value (His-tagged GST) was “inactive”.
In the case of `Cc1cccc(NC(=O)c2c(NC(=O)C(F)(F)F)sc3c2CCCCC3)c1` [NCGC00098561], the Emax (MCF7-siIQ8 cells; MCF7, 72 h, read-out: cytotoxicity efficacy) is reported as ~100%, the IC50 (MCF7-siIQ8 cells; IQGAP1 knockdown MCF7-siIQ8 cells, 72 h, read-out: cytotoxicity EC50) is reported as 2240 nM and the “activity in His-GST counter-screen” value (His-tagged GST) is reported as “not active”.
